Data published in PMC8597046, “Use of Mixture Dosing and Nonlinear Mixed Effect Modeling of Eight Environmental Contaminants in Rabbits to Improve Extrapolation Value of Toxicokinetic Data” (Environmental Health Perspectives, 2021).

What was measured:
[1] = Chronic exposure: daily oral mixture for 17 wk, steady-state serum concentrations
Experimental: The objective of this preliminary experiment was to check the ability of our approach to determine the loading and maintenance doses of the eight compounds to be administered simultaneously by oral route to reproduce in female rabbits targeted serum concentrations. The experiment was carried out on thirty-two 2-wk old female New Zealand white rabbits (INRA 1777 line) randomly allocated to a treatment and control groups of 16 rabbits weighing 309±45g and 298±62g , respectively. The treated rabbits were orally administrated a mixture of the eight compounds at a dosage corresponding to the sum of the loading and daily maintenance doses followed by daily administrations of the maintenance dose for 17 wk (see the “Estimation of the doses” section). The control group was orally administrated the vehicle for the same duration.
The volume of the maintenance dosing solution ( 1mL/kg ) was weekly adjusted to the mean BW estimated from the known pattern of growth of the INRA 1777 rabbit line. Oral dosing and antemortem blood sampling were performed as previously described.
Blood samples were left to clot for about 20–30 min at ambient temperature and centrifuged for 20 min at 3,000×g at 25°C. The separated serum was stored in glass tubes at −20°C until assayed.

[2] = TK assay, oral mixture dosing: serum concentrations and noncompartmental analysis (sparse data)
Experimental: The experiment was carried out on thirty 10-wk old female New Zealand white rabbits (INRA 1777 line) weighing 2.37±0.14kg . […] Blood samples were taken at the designated time points post IV and oral administration: 15 min, 30 min, 1 h, 2 h, 4 h, 8 h, 12 h, 24 h, 3 d, 7 d, and 28 d from groups of 3 or 6 rabbits at each sampling time. Each rabbit was sampled 3 times and 3 rabbits were sampled at each sampling time, except at 30 min post administration, when 6 samples were collected to provide a sufficient blood volume for assaying the compounds. The doses and assay time points were selected to allow the calculation of TK parameters (Table 1) based on preliminary TK data. Residual concentrations of the compounds, and their possible evolution over time, were determined by sampling six entirely untreated rabbits during the TK study on the day of drug administrations, then 14 d and 28 d later.
The volume administered was adjusted to the animal’s body weight (BW) recorded the day before.
Intravenous administrations were performed via an indwelling catheter (22G Terumo, 0.9×25mm ) just after its insertion into an ear vein. […] For oral administrations, the mixture of all compounds ( 4mL/kg ) was deposited directly in the mouth of rabbits using a catheter (22G BD Insyte 22G, 0.9×25mm ). Prior to the study, the rabbits had been trained to gradually swallow water and then corn oil.
Blood samples were collected from the auricular artery using a 20 G needle ( 0.9×25mm ) and a dry tube. The first two blood samples were 8–10mL in volume, whereas a large volume (about 20mL ) was obtained antemortem immediately after electrical stunning (95LX rabbit stunner; Burdis), followed by exsanguination.
Serum concentration-time profiles of the different compounds were first analyzed using a noncompartmental approach (NCA) involving a sparse data option. Sparse data methodology consists of calculating TK parameters based on the mean profile of all the subjects in the dataset and is appropriate when a rich data series cannot be obtained, as in the present experiment ([FDA 1999]). The area under the concentration time curve ( AUC0−tlast ) and the area under the first moment curve ( AUMC0−tlast ) from dosing time ( t=0 ) to the time of the last measurable concentration were calculated using the linear trapezoidal rule after IV and oral dosing. The area under the serum concentration time curve from dosing time to infinity ( AUC0−inf ) was obtained by adding to AUC0−tlast the area extrapolated from the time of the last measurable concentration to infinity by dividing the last quantifiable serum concentration by the slope of the terminal phase ( λZ ), as estimated by linear regression using the best fit option of Phoenix®.
The clearance (CL) and apparent clearance (CL_F) were respectively estimated after IV and oral administrations by dividing the administered dose by the AUC0−inf calculated for each analyte.
The terminal half-life (HL) was estimated with Equation 1: (1) HL=0.69315/λZ where λz is the slope of the terminal phase.
The oral bioavailability (F) was estimated using Equation 2: (2) F=AUCvo0−tlast×Doseiv/AUCiv0−tlast×Dosevo, where AUCiv0−tlast and AUCvo0-tlast are the values of AUC0−tlast obtained after IV and oral dosing, respectively, and Doseiv and Dosevo are the IV and oral doses.

[3] = Estimation of loading and daily maintenance doses and NLME model simulations; parameters: species or system female rabbits; conditions: oral, DEHP dose for MEHP in serum
Experimental: The ultimate goal of this TK investigation was to compute a dosage regimen that allowed targeted steady-state serum concentrations to be attained rapidly for a planned TK/TD trial on the reprotoxic effect of a mixture of environmental contaminants in female rabbits. […] With that in mind, the loading and the daily maintenance doses of each compound were evaluated using Equations 12 and 13, respectively.
This risk was also the reason why the NLME model was employed to simulate the time development of the amounts of compounds in the central and peripheral compartments following administration of the daily maintenance dose of each compound over the same duration.
The loading and maintenance doses computed to ensure a nominal CSS of 1 ng/mL were scaled to determine the doses to be administrated by oral route to female rabbits to maintain the targeted CSS .

[4] = oral mixture dosing, NCA, n=12, MEHP after oral DEHP
[5] = oral, rabbit 13, 4.30 h, MEHP after oral DEHP
[6] = oral, rabbit 14, 0.37 h, MEHP after oral DEHP
[7] = oral, rabbit 14, 4.17 h, MEHP after oral DEHP
[8] = oral, rabbit 15, 4.05 h, MEHP after oral DEHP
[9] = oral, rabbit 15, 23.98 h, MEHP after oral DEHP
[10] = oral, rabbit 16, 0.55 h, MEHP after oral DEHP
[11] = oral, rabbit 16, 72.00 h, MEHP after oral DEHP
[12] = oral, rabbit 17, 0.53 h, MEHP after oral DEHP
[13] = oral, rabbit 17, 72.00 h, MEHP after oral DEHP
[14] = oral, rabbit 18, 0.55 h, MEHP after oral DEHP
[15] = oral, rabbit 18, 71.96 h, MEHP after oral DEHP
[16] = oral, rabbit 19, 12.00 h, MEHP after oral DEHP
[17] = oral, rabbit 20, 12.00 h, MEHP after oral DEHP
[18] = oral, rabbit 21, 12.00 h, MEHP after oral DEHP
[19] = serum, oral mixture dosing, NCA, n=12, MEHP after oral DEHP
[20] = serum, oral mixture dosing, NCA, n=12, doses in Table 3 r3, MEHP measured after oral DEHP, BPSG after BPS
[21] = female, New Zealand white (INRA 1777 line), rabbit, in vivo, po
[22] = female, New Zealand white (INRA 1777 line), rabbit, in vivo, po, Serum concentration
[23] = female, New Zealand white, rabbit, in vivo, po, Serum concentration

CCCCC(CC)COC(=O)c1ccccc1C(=O)O (stereo not shown) [MEHP, mono(2-ethylhexyl)phthalate]
Observed CSS ([1]; serum, mean±SD, n=16, after 17 weeks of oral mixture, MEHP after DEHP dosing): 51±28 (MEHP) ng/mL | F (fraction of the dose of DEHP that has been metabolized into MEHP) ([2]; NCA, MEHP after oral DEHP vs IV MEHP, as fraction): 0.99 | MRT [2, 4]: 12.0 h | Tmax [2, 4]: 4.05 h | Serum concentration [2, 5]: 5150 nM | Serum concentration [2, 6]: 1090 nM | Serum concentration [2, 7]: 5840 nM | Serum concentration [2, 8]: 6870 nM | Serum concentration [2, 9]: 270 nM | Serum concentration [2, 10]: 1490 nM | Serum concentration ([2]; oral, rabbit 16, 8.22 h, MEHP after oral DEHP): 2380 nM | Serum concentration [2, 11]: 33 nM | Serum concentration [2, 12]: 2290 nM | Serum concentration ([2]; oral, rabbit 17, 8.48 h, MEHP after oral DEHP): 4200 nM | Serum concentration [2, 13]: 25 nM | Serum concentration [2, 14]: 2150 nM | Serum concentration ([2]; oral, rabbit 18, 8.00 h, MEHP after oral DEHP): 3830 nM | Serum concentration [2, 15]: 91 nM | Serum concentration ([2]; oral, rabbit 19, 1.02 h, MEHP after oral DEHP): 4160 nM | Serum concentration [2, 16]: 1610 nM | Serum concentration ([2]; oral, rabbit 20, 1.07 h, MEHP after oral DEHP): 3160 nM | Serum concentration [2, 17]: 1930 nM | Serum concentration ([2]; oral, rabbit 21, 1.08 h, MEHP after oral DEHP): 2800 nM | Serum concentration [2, 18]: 1910 nM | Serum concentration ([2]; oral, rabbit 22, 2.00 h, MEHP after oral DEHP): 3290 nM | Serum concentration ([2]; oral, rabbit 23, 2.00 h, MEHP after oral DEHP): 2930 nM | Serum concentration ([2]; oral, rabbit 24, 2.22 h, MEHP after oral DEHP): 1570 nM | AUC0−inf [2, 19]: 65.2 µmol·h/L | Cmax [2, 20]: 6870 nM | half-life ([2]; terminal, oral mixture dosing, NCA, n=12, MEHP after oral DEHP): 10.4 h

O=S(=O)(O)C(F)(F)C(F)(F)C(F)(F)C(F)(F)C(F)(F)C(F)(F)C(F)(F)C(F)(F)F [nPFOS, linear isomer of perfluorooctane sulfonate]
Oral bioavailability estimated by NCA ([2]; NCA): greater than 100% | CL_F (apparent clearance) ([2]; oral mixture dosing, NCA, n=12): 0.00347 mL/min/kg | MRT [2, 4]: 1678 h | Tmax [2, 4]: 24 h | VZ_F (apparent volume of distribution associated to the terminal phase) [2, 4]: 0.359 L/kg | Serum concentration [2, 5]: 710 nM | Serum concentration [2, 6]: 230 nM | Serum concentration [2, 7]: 890 nM | Serum concentration [2, 8]: 1040 nM | Serum concentration [2, 9]: 1280 nM | Serum concentration [2, 10]: 140 nM | Serum concentration [2, 11]: 1100 nM | Serum concentration [2, 12]: 120 nM | Serum concentration [2, 13]: 1540 nM | Serum concentration [2, 14]: 290 nM | Serum concentration [2, 15]: 1250 nM | Serum concentration [2, 16]: 660 nM | Serum concentration ([2]; oral, rabbit 19, 168.02 h): 1010 nM | Serum concentration [2, 17]: 690 nM | Serum concentration ([2]; oral, rabbit 20, 168.00 h): 1070 nM | Serum concentration [2, 18]: 810 nM | Serum concentration ([2]; oral, rabbit 21, 168.00 h): 1060 nM | Serum concentration ([2]; oral, rabbit 22, 672.02 h): 450 nM | Serum concentration ([2]; oral, rabbit 23, 671.96 h): 820 nM | Serum concentration ([2]; oral, rabbit 24, 672.02 h): 1020 nM | AUC0−inf [2, 19]: 1,919 μmol×h/L | Cmax [2, 20]: 1300 nM | Daily maintenance dose ([3]; to maintain serum concentration of 1 ng/mL, daily CL×Css/F): 0.0077 µg/kg | Loading dose ([3]; to rapidly attain serum concentration of 1 ng/mL, Vss×Css/F): 0.37 µg/kg

Clc1c(Cl)c(Cl)c(Cl)c(Cl)c1Cl [HCB, hexachlorobenzene]
concentration at 17 wk [1, 21]: 2.9 ± 1.5 ng/mL | AUC(0-inf) [2, 21]: 340 µM·h | CL/F [2, 21]: 1.33 mL/min/kg | Cmax [2, 21]: 505 nM | MRT [2, 21]: 1120 h | Tmax [2, 21]: 24 h | Vd/F [2, 21]: 95 L/kg | bioavailability [2, 21]: 64% | half-life [2, 21]: 816 h | Serum concentration ([2]; female, New Zealand white (INRA 1777 line), rabbit, in vivo, po, 24 h): 370 nM | concentration at 0.57 h [2, 22]: 66 nM | concentration at 23.98 h [2, 22]: 370 nM | concentration at 24 h [2, 22]: 640 nM | concentration at 168 h [2, 22]: 290 nM | concentration at 671.96 h [2, 22]: 160 nM | Serum concentration ([2]; female, New Zealand white, rabbit, in vivo, po, 72 h): 400 nM | concentration at 71.96 h [2, 23]: 490 nM | concentration at 72 h [2, 23]: 220 nM | concentration at 168 h [2, 23]: 240 nM | concentration at 168.02 h [2, 23]: 240 nM
